Test system: panel of cancer cell lines
Assay: Cell viability (CellTiter-Glo) dose-response across cancer cell line panel;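 as to EC50: after 72 h compound incubation with CellTiter-Glo ATP readout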
Assay type: cell-based, human
Conditions: for EC50: Homo sapiens
Text: Next, we explored the effect of CSN5 inhibition on the viability of cancer cells. To obtain a comprehensive picture, we generated dose–response curves with a CSN5 inhibitor across more than 500 cancer cell lines in a previously described standardized setting[47] (Supplementary Data 1).
A standardized CellTiter-Glo Assay (Promega #G7570) based on the quantification of ATP was applied according to the manufacturer's protocol to measure the amount of viable cells in culture. In brief, cells were seeded into 384-well plates at optimal density for each cell line. After 4 h, compounds were added at different concentrations in growth medium and incubated for another 72 h in a humidifying chamber at 37 °C and 5% CO2. […] EC50 values were calculated from the plot of percentage of inhibition versus inhibitor concentration using the nonlinear regression analysis software Origin 7.5SR6 (OriginLab Corp.).

Question: With NS(=O)(=O)OC[C@@H]1C[C@@H](n2ccc3c(N[C@H]4CCc5ccccc54)ncnc32)C[C@@H]1O [MLN4924] as the molecule, how does the EC50 (SNU-685) read?
Answer: 720 nM

Question: What about the EC50 (SNU-738) of the same molecule?
Answer: 410 nM

Question: What about the EC50 (SNU-761) of the same molecule?
Answer: 874 nM

Question: And the EC50 (SNU-886, SNU-886)?
Answer: 42.5 nM

Question: And the EC50 (SNU-1040)?
Answer: 159 nM

Question: What about the EC50 (SNU-1079) of the same molecule?
Answer: 386 nM

Question: What about the EC50 (SNU-C1, SNU-C1) of the same molecule?
Answer: 1630 nM

Question: What about the EC50 (SNU-C2A) of the same molecule?
Answer: 6400 nM

Question: What about the EC50 (SNU-C4, SNU-C4) of the same molecule?
Answer: 1110 nM

Question: What about the EC50 (SNU-C5) of the same molecule?
Answer: 589 nM

Question: And the EC50 (SR-786, SR-786)?
Answer: 861 nM

Question: What about the EC50 (SU-DHL10, SU-DHL-10) of the same molecule?
Answer: 204 nM

Question: What about the EC50 (SU-DHL-4, SU-DHL-4) of the same molecule?
Answer: 76.1 nM

Question: And the EC50 (SU-DHL-5, SU-DHL-5)?
Answer: 101 nM

Question: And the EC50 (SU-DHL-6, SU-DHL-6)?
Answer: 248 nM

Question: And the EC50 (SU-DHL-8, SU-DHL-8)?
Answer: 155 nM

Question: And the EC50 (SU.86.86, SU.86.86)?
Answer: 777 nM

Question: What about the EC50 (SUIT-2, SUIT-2) of the same molecule?
Answer: 184 nM

Question: And the EC50 (SUM52PE)?
Answer: 109 nM

Question: And the EC50 (SUM149PT)?
Answer: 611 nM

Question: And the EC50 (SUM185PE)?
Answer: 63.7 nM

Question: And the EC50 (SUM190PT)?
Answer: 98.9 nM

Question: And the EC50 (SUM-159-PT, SUM159PT)?
Answer: 6930 nM

Question: What about the EC50 (SUP-T1, SUP-T1) of the same molecule?
Answer: 154 nM

Question: What about the EC50 (SW48, SW48) of the same molecule?
Answer: 145 nM

Question: What about the EC50 (SW480, SW480) of the same molecule?
Answer: 399 nM

Question: What about the EC50 (SW900, SW 900) of the same molecule?
Answer: 1520 nM

Question: What about the EC50 (SW982, SW982) of the same molecule?
Answer: 805 nM

Question: What about the EC50 (SW1088, SW 1088) of the same molecule?
Answer: > 30000 nM

Question: What about the EC50 (SW1271, SW 1271) of the same molecule?
Answer: 523 nM

Question: What about the EC50 (SW1353, SW 1353) of the same molecule?
Answer: 2900 nM

Question: What about the EC50 (SW1573, SW 1573) of the same molecule?
Answer: 224 nM

Question: And the EC50 (SW1783, SW 1783)?
Answer: > 30000 nM

Question: And the EC50 (SW-403, SW403)?
Answer: 803 nM

Question: What about the EC50 (SW-620, SW620) of the same molecule?
Answer: 1500 nM

Question: What about the EC50 (SYO-1) of the same molecule?
Answer: 281 nM

Question: And the EC50 (Sq-1)?
Answer: 164 nM

Question: What about the EC50 (T3M4, T3M-4) of the same molecule?
Answer: 459 nM

Question: What about the EC50 (T47D, T-47D) of the same molecule?
Answer: 315 nM

Question: And the EC50 (TALL-1, TALL-1)?
Answer: 446 nM

Question: What about the EC50 (TANOUE) of the same molecule?
Answer: 57.9 nM

Question: And the EC50 (TC-71, TC-71)?
Answer: 159 nM

Question: And the EC50 (TCC-PAN2)?
Answer: 1300 nM

Question: And the EC50 (TE-1, TE-1)?
Answer: 1700 nM

Question: What about the EC50 (TE-6, TE-6) of the same molecule?
Answer: 422 nM

Question: What about the EC50 (TE-11, TE-11) of the same molecule?
Answer: 247 nM

Question: And the EC50 (TE-14)?
Answer: 339 nM

Question: And the EC50 (TF-1, TF-1)?
Answer: 1710 nM

Question: What about the EC50 (THP-1, THP-1) of the same molecule?
Answer: 175 nM

Question: What about the EC50 (TT2609-C02) of the same molecule?
Answer: 334 nM

Question: And the EC50 (TYK-nu)?
Answer: 156 nM

Question: What about the EC50 (U266B1) of the same molecule?
Answer: 827 nM

Question: What about the EC50 (U-87 MG) of the same molecule?
Answer: 447 nM

Question: What about the EC50 (U-118-MG, U-118 MG) of the same molecule?
Answer: 541 nM

Question: And the EC50 (U-251, U-251 MG)?
Answer: 1690 nM

Question: And the EC50 (U-937, U-937)?
Answer: 103 nM

Question: And the EC50 (UACC-62, UACC-62)?
Answer: 192 nM

Question: And the EC50 (UACC-257, UACC-257)?
Answer: 650 nM

Question: What about the EC50 (UCH1, UCH-1) of the same molecule?
Answer: 5210 nM

Question: And the EC50 (UKE1, UKE1)?
Answer: 383 nM

Question: And the EC50 (VM-CUB-1, VM-CUB1)?
Answer: 829 nM

Question: And the EC50 (VMRC-LCD)?
Answer: 288 nM

Question: And the EC50 (VMRC-RCW)?
Answer: 1230 nM

Question: And the EC50 (WM 266-4, WM-266-4)?
Answer: 465 nM

Question: And the EC50 (WM983B, WM-983B)?
Answer: 201 nM

Question: What about the EC50 (WM-88) of the same molecule?
Answer: 510 nM

Question: And the EC50 (WM-115, WM-115)?
Answer: 1410 nM

Question: And the EC50 (WM-1799, WM1799)?
Answer: 154 nM

Question: And the EC50 (WSU-WM)?
Answer: 185 nM

Question: What about the EC50 (YAPC) of the same molecule?
Answer: 205 nM

Question: What about the EC50 (ZR-75-1, ZR-75-1) of the same molecule?
Answer: 353 nM

Question: What about the AMAX (Hs 695T) of the same molecule?
Answer: -54.4409

Question: What about the AMAX (Hs 936.T) of the same molecule?
Answer: -81.1628

Question: What about the AMAX (HuG1-N) of the same molecule?
Answer: -47.6265

Question: What about the AMAX (HuH-7) of the same molecule?
Answer: -61.9045

Question: And the AMAX (IGR-37)?
Answer: -85.5177

Question: And the AMAX (IGROV1)?
Answer: -85.9932

Question: And the AMAX (IPC-298)?
Answer: -80.8233

Question: And the AMAX (Ishikawa)?
Answer: -91.0654

Question: And the AMAX (J82)?
Answer: -49.0789

Question: What about the AMAX (JHH-4) of the same molecule?
Answer: -91.4007

Question: And the AMAX (JHOS-2)?
Answer: -63.2509

Question: And the AMAX (JHUEM-2)?
Answer: -75.0485

Question: And the AMAX (JHUEM-3)?
Answer: -28.2496

Question: And the AMAX (JL-1)?
Answer: -61.5427

Question: What about the AMAX (JVM-2) of the same molecule?
Answer: -91.7997

Question: And the AMAX (KARPAS-422)?
Answer: -93.0088

Question: And the AMAX (KATO III)?
Answer: -44.0826

Question: And the AMAX (KBM-7)?
Answer: -98.5101

Question: And the AMAX (KE-97)?
Answer: -95.9856

Question: What about the AMAX (KMRC-1) of the same molecule?
Answer: -84.1268

Question: What about the AMAX (KP4) of the same molecule?
Answer: -71.8264

Question: And the AMAX (KP-1N)?
Answer: -53.1172

Question: What about the AMAX (KP-2) of the same molecule?
Answer: -64.2974

Question: What about the AMAX (KP-3) of the same molecule?
Answer: -63.0208

Question: And the AMAX (KU-19-19)?
Answer: -84.2248

Question: What about the AMAX (KYSE-150) of the same molecule?
Answer: -87.7498

Question: And the AMAX (KYSE-180)?
Answer: -85.8737

Question: And the AMAX (Kasumi3)?
Answer: -97.5892

Question: And the AMAX (L-363)?
Answer: -96.7272

Question: And the AMAX (LC2/ad)?
Answer: -74.576

Question: What about the AMAX (MM138) of the same molecule?
Answer: -73.7519

Question: What about the AMAX (MM415) of the same molecule?
Answer: -81.4932

Question: And the AMAX (MM426)?
Answer: -75.6165

Question: What about the AMAX (MM485) of the same molecule?
Answer: -69.3744

Question: What about the AMAX (MM537) of the same molecule?
Answer: -69.6122

Question: And the AMAX (MOLT-16)?
Answer: -97.3083

Question: And the AMAX (MeWo)?
Answer: -75.2037

Question: And the AMAX (NB-1)?
Answer: -99.4488

Question: And the AMAX (NCI-H82)?
Answer: -97.4475

Question: What about the AMAX (NCI-H146) of the same molecule?
Answer: -90.9498

Question: And the AMAX (NCI-H322)?
Answer: -80.9979

Question: And the AMAX (NCI-H441)?
Answer: -47.4873

Question: And the AMAX (NCI-H647)?
Answer: -73.4893

Question: And the AMAX (NCI-H841)?
Answer: -87.0207

Question: What about the AMAX (NCI-H1373) of the same molecule?
Answer: -83.9593

Question: And the AMAX (NCI-H1568)?
Answer: -95.718

Question: What about the AMAX (NCI-H1755) of the same molecule?
Answer: -73.6315

Question: What about the AMAX (NCI-H2023) of the same molecule?
Answer: -96.0734

Question: And the AMAX (NCI-H2087)?
Answer: -83.0999

Question: And the AMAX (NCI-H2110)?
Answer: -89.6657

Question: And the AMAX (NCI-H2452)?
Answer: -41.6484

Question: And the AMAX (NCI-N87)?
Answer: -74.5636

Question: And the AMAX (NO36)?
Answer: -67.5733

Question: What about the AMAX (OUMS-23) of the same molecule?
Answer: -78.9353

Question: What about the AMAX (OV56) of the same molecule?
Answer: -95.0768

Question: What about the AMAX (P3HR-1) of the same molecule?
Answer: -93.355

Question: What about the AMAX (P12-ICHIKAWA) of the same molecule?
Answer: -96.3019

Question: And the AMAX (PA-TU-8988T)?
Answer: -81.7224

Question: What about the AMAX (PANC-1) of the same molecule?
Answer: -64.2148

Question: And the AMAX (PC-3)?
Answer: -79.4027

Question: And the AMAX (PE/CA-PJ34 (clone C12))?
Answer: -79.361

Question: What about the AMAX (PE/CA-PJ49) of the same molecule?
Answer: -67.4836

Question: What about the AMAX (PF-382) of the same molecule?
Answer: -98.4673

Question: What about the AMAX (PL-21) of the same molecule?
Answer: -95.522

Question: And the AMAX (Panc 03.27)?
Answer: -88.9221

Question: And the AMAX (Panc 04.03)?
Answer: -72.0017

Question: What about the AMAX (Panc 10.05) of the same molecule?
Answer: -85.7173

Question: What about the AMAX (RD-ES) of the same molecule?
Answer: -97.5942

Question: And the AMAX (RT-112)?
Answer: -90.3953

Question: And the AMAX (SEM)?
Answer: -97.7133

Question: And the AMAX (SK-ES-1)?
Answer: -95.0336

Question: And the AMAX (SK-MEL-3)?
Answer: -81.0459

Question: And the AMAX (SW480)?
Answer: -74.5488

Question: What about the AMAX (VMRC-RCW) of the same molecule?
Answer: -71.6057

From article PMC5078989, “Targeted inhibition of the COP9 signalosome for treatment of cancer” (Nature Communications, 2016)
